Reference: patent US20160122320A1, “USEFUL COMBINATIONS OF MONOBACTAM ANTIBIOTICS WITH BETA-LACTAMASE INHIBITORS” (Basilea Pharmaceutica AG, priority 2005, published 2016)

Tests used:
Assay in all cases: MIC, NCCLS broth microdilution
Format in all cases: cell-based
[1] = tested on: Klebsiella pneumoniae CF104; conditions: MIC of antibiotic compound 1 with the labelled bridged monobactam of formula II and clavulanate, 4 mg/L each
[2] = tested on: Acinetobacter sp. J2; conditions: Acinetobacter sp. J2; MIC of antibiotic compound 1 with the labelled bridged monobactam of formula II and clavulanate, 4 mg/L each
[3] = tested on: Pseudomonas aeruginosa 1973E; conditions: MIC of antibiotic compound 1 with the labelled bridged monobactam of formula II and clavulanate, 4 mg/L each
Method in brief: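 MIC read by eye as the lowest concentration giving no visible growth after overnight incubation (30° C. or 37° C.), following NCCLS M7-A5 microdilution with ≤1% final DMSO. For combinations, partner compounds (formula II, III-XIII) were fixed at 4 μg/mL each while formula I compounds were titrated.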

[4] = tested on: Stenotrophomonas malthophilia 1AC736; conditions: Stenotrophomonas malthophilia 1AC736; MIC of antibiotic compound 1 with the labelled bridged monobactam of formula II and clavulanate, 4 mg/L each
Description: (§1) Antimicrobial activity of the compounds and of their combinations was determined against a selection of organisms according to the standard procedures described by the National Committee for Clinical Laboratory Standards (National Committee for Clinical Laboratory. Standards (2000). Methods for Dilution Antimicrobial Susceptibility Tests for Bacteria That Grow Aerobically-Fifth Edition: Approved Standard M7-A5. NCCLS, Wayne, Pa., USA).
(§2) In all cases the final concentration of DMSO incubated with the bacteria is less than or equal to 1%. […] Plates were incubated overnight at an appropriate temperature (30° C. or 37° C.) and optical densities assessed by eye. The MIC value is defined as the lowest compound concentration completely inhibiting visible growth of the test organism. When combinations between compounds of formula I with compounds of formula II and are evaluated the compounds of formula I are tested in dilution series as described above while the compounds of formula II and III-XIII were present in all wells at a constant concentration of 4 μg/mL each.

[5] = tested on: Serratia marcescens S6; conditions: MIC of antibiotic compound 1 with the labelled bridged monobactam of formula II and clavulanate, 4 mg/L each
[6] = tested on: Enterobacter cloacae P99; conditions: MIC of antibiotic compound 1 with the labelled bridged monobactam of formula II and clavulanate, 4 mg/L each
Description: as §1, §2

[7] = tested on: Pseudomonas aeruginosa MK1184; conditions: MIC of antibiotic compound 1 with the labelled bridged monobactam of formula II and clavulanate, 4 mg/L each

## NC(C(=O)N1CC[C@@H]2[C@H]1C(=O)N2S(=O)(=O)O)c1ccc(O)c(O)c1 (stereo partly shown) [Compound 403]
[1]
  MIC of antibiotic at fixed inhibitor concentration (4 mg/L): 4 µg/mL
[2]
  MIC of antibiotic at fixed inhibitor concentration (4 mg/L): 8 µg/mL
[3]
  MIC of antibiotic at fixed inhibitor concentration (4 mg/L): 2 µg/mL
[4]
  MIC of antibiotic at fixed inhibitor concentration (4 mg/L): 0.125 µg/mL
[5]
  MIC of antibiotic at fixed inhibitor concentration (4 mg/L): 0.5 µg/mL
[6]
  MIC of antibiotic at fixed inhibitor concentration (4 mg/L): 32 µg/mL
[7]
  MIC of antibiotic at fixed inhibitor concentration (4 mg/L): >32 µg/mL
